Data reported in ChEMBL document CHEMBL1201862, “PubChem BioAssay data set” (2004).
Calls of active or inactive are those of the source.

Key:
Fatty acid synthase [1] = biological target: T1, Fatty acid synthase (Homo sapiens, UniProt P49327); test: inhibition of human FAS-TE enzyme activity – biochemical, kinetic fluorescence intensity, dose response (AID 624326); type: functional;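 note: rate of fluorescence rise from hydrolysis of a fluorogenic O-methyl fluorescein ester substrate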
[2] = biological target: T2, Corticotropin-releasing factor receptor 2/Corticotropin-releasing factor-binding protein (Homo sapiens, UniProt P24387+Q13324); test: Dose Response confirmation of uHTS hits for small molecule antagonists of the CRF-binding protein and CRF-R2 receptor complex.; type: functional; settings: read-out: IC50_Mean
T2 sequence (Q13324 whole entry): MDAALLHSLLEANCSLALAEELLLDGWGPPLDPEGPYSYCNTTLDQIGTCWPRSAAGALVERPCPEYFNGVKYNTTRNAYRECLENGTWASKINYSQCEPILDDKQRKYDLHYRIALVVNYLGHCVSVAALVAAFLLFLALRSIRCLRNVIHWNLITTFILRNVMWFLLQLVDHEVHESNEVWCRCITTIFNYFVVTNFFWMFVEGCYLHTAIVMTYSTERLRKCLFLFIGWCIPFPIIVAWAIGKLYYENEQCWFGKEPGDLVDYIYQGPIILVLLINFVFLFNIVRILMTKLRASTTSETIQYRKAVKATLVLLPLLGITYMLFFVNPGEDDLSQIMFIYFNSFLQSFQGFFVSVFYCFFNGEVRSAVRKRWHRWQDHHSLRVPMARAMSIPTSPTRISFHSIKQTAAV
T2 sequence (P24387 whole entry): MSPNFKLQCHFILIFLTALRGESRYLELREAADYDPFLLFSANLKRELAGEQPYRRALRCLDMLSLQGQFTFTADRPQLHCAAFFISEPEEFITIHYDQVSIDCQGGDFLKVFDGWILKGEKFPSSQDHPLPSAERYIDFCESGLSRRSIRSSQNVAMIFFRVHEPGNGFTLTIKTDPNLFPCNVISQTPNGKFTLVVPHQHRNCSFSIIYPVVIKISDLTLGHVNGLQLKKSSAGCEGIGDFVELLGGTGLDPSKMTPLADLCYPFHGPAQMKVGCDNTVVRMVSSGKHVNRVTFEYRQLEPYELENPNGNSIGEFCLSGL

[3] = biological target: T2, Corticotropin-releasing factor receptor 2/Corticotropin-releasing factor-binding protein; test: activators of CRF receptor 2 with binding protein – uHTS hits, confirmation (AID 602473); type: functional; settings: read-out: EC50_Mean
Fatty acid synthase [4] = biological target: T1, Fatty acid synthase; test: inhibition of human FAS-TE enzyme activity – biochemical, endpoint fluorescence intensity, uHTS hits, dose response (AID 624327); type: functional;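 note: fluorescence from hydrolysis of an O-methyl fluorescein acyl ester substrate by the enzyme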
[5] = biological target: Voltage-dependent T-type calcium channel subunit alpha-1H (Homo sapiens, UniProt O95180); type: functional;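 note: channel activity triggered by adding a high calcium stimulation buffer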
Chain of Voltage-dependent T-type calcium channel subunit alpha-1H (O95180 whole entry): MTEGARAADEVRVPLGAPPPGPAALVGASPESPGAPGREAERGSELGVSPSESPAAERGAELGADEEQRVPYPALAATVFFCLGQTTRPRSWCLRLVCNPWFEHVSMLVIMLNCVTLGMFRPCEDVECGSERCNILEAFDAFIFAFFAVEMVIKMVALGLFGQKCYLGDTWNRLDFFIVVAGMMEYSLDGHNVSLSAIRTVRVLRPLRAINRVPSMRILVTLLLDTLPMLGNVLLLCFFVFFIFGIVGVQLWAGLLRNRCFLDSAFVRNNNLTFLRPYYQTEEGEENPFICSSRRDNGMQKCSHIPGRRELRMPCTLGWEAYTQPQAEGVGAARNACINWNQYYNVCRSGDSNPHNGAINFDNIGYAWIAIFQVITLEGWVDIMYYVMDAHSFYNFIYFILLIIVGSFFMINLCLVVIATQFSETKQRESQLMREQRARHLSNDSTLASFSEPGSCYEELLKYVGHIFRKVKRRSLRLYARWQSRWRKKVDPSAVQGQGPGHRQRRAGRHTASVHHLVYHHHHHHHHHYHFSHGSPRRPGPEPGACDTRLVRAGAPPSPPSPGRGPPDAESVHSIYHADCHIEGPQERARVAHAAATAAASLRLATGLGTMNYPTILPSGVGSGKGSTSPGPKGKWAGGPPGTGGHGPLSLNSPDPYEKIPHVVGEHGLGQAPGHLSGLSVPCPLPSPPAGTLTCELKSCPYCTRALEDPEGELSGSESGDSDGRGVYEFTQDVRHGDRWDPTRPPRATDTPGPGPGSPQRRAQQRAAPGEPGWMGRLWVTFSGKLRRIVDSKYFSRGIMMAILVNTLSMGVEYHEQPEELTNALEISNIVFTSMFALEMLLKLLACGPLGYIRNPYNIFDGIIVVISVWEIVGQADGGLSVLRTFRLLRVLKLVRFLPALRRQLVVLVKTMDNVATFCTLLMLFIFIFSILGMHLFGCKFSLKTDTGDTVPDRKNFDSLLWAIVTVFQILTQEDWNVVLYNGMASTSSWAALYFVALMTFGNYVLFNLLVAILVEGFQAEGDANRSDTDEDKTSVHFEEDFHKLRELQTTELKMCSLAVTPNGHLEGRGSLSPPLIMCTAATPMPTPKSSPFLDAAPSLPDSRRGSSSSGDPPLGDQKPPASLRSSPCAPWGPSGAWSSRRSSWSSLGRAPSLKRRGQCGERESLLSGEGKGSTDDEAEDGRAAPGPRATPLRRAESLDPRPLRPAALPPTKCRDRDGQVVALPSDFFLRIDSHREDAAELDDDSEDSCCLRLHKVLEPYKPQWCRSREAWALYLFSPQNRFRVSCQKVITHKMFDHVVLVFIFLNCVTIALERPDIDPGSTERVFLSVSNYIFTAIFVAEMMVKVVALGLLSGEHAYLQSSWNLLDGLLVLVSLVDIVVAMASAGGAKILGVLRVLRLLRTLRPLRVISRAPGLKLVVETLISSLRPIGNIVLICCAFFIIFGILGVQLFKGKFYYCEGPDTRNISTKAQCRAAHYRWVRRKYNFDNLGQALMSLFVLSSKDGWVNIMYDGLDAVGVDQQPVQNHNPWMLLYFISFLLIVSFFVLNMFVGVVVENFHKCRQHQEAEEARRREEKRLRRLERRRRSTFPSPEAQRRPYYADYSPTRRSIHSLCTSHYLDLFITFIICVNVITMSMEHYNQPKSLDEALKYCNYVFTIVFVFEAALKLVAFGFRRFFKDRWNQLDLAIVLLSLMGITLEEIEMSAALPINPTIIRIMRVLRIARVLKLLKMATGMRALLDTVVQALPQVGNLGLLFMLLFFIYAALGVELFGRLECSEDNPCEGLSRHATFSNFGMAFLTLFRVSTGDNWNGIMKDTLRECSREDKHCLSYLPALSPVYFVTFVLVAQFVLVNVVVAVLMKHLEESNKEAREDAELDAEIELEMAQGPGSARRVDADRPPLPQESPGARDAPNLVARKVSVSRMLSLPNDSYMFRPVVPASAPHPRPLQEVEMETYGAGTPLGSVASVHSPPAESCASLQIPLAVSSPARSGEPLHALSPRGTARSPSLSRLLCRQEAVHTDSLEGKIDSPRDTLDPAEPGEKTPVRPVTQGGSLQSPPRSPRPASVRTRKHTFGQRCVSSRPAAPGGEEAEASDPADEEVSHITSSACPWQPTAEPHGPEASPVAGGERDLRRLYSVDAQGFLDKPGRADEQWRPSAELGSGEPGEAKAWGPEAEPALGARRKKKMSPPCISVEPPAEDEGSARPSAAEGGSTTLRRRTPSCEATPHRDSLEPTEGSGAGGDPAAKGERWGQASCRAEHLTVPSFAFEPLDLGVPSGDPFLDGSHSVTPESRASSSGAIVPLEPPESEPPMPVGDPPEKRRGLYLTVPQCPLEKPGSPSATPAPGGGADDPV

[6] = biological target: T3, Heat shock factor protein 1 (Mus musculus, UniProt P38532); test: decrease of HSF1-responsive luciferase luminescence – cell-based, NIH3T3, dose retest, confirmation (AID 2382); type: functional;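 note: NIH3T3 fibroblasts with HSF1-driven luciferase reporter stressed by proteasome inhibitor MG132; luminescence from HSF1-driven luciferase expression after 8 hours of MG132 stress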
T3 sequence (P38532 whole entry): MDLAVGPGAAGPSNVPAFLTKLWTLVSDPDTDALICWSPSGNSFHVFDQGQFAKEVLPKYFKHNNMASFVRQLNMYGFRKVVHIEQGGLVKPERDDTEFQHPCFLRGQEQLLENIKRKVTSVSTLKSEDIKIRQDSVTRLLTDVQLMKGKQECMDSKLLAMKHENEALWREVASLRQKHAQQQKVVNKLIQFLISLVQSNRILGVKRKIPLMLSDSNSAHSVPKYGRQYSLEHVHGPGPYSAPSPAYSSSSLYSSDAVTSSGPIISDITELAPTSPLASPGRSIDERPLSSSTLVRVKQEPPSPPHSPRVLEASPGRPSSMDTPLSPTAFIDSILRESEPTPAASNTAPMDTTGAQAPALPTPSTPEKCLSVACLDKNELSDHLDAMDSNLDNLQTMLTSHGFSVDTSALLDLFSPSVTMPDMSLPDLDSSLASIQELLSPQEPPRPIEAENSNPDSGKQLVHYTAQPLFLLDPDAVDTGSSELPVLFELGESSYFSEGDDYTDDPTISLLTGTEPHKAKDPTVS

[7] = biological target: T4, Short transient receptor potential channel 4 (Mus musculus, UniProt Q9QUQ5); test: block of DAMGO-driven TRPC4 calcium entry – cell-based, HEK293 TRPC4/mu-opioid, Fluo-4 calcium, dose response (AID 434942); type: functional;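 note: potency of inhibitors blocking the TRPC4 calcium response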
T4 sequence (Q9QUQ5 whole entry): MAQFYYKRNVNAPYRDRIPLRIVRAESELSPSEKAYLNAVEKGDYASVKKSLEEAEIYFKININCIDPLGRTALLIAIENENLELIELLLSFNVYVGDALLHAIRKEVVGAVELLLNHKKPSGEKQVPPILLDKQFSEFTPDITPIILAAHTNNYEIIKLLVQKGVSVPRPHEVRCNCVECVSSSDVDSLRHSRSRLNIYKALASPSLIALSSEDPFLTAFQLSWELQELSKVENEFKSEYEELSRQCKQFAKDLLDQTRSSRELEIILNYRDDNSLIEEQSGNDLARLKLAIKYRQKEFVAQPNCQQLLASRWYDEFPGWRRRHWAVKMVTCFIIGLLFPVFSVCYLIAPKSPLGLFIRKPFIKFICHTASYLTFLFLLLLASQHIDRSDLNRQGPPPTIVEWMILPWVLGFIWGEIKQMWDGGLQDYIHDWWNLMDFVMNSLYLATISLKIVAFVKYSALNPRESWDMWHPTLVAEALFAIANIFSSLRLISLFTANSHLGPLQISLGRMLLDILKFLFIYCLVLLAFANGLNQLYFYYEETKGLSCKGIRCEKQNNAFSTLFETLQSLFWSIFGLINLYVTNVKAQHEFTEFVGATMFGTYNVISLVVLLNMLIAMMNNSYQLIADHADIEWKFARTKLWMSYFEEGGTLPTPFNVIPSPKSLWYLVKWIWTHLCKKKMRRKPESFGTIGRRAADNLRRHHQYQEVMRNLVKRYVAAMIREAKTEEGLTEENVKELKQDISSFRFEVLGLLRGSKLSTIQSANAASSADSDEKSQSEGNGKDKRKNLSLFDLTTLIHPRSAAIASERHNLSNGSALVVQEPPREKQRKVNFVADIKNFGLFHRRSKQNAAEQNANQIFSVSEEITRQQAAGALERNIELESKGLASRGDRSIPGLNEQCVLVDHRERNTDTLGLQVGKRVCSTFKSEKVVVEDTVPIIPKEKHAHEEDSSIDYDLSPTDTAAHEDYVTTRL

[8] = biological target: Induced myeloid leukemia cell differentiation protein Mcl-1 (Homo sapiens, UniProt Q07820); type: functional
Chain of Induced myeloid leukemia cell differentiation protein Mcl-1 (Q07820 whole entry): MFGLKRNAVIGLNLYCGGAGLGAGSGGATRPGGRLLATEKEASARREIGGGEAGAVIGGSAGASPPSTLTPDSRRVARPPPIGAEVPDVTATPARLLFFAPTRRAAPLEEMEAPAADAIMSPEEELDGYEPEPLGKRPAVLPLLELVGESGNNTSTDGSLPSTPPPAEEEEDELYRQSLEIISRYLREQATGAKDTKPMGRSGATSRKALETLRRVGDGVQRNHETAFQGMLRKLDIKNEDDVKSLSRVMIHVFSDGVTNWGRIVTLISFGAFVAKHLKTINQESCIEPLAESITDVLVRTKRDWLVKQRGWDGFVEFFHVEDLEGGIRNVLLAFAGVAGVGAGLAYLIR

[9] = Luminescence Cell-Based Dose Confirmation HTS to Identify Activators of 5'UTR Stem-Loop Driven Alpha-Synuclein mRNA Translation in H4 Neuroglioblastoma Cells. [Related pubchem assays: 1829 (Project Summary), 1814 (Primary HTS)]; type: functional
H4 = test: Luminescence Cell-Based Dose Response HTS to Identify Activators of 5'UTR Stem-Loop Driven Prion Protein mRNA Translation in H4 Neuroglioblastoma Cells. [Related pubchem assays: 1829 (Project Summary), 1814 (Primary HTS)]; type: functional; settings: Homo sapiens
[10] = Luminescence Cell-Based Dose Response HTS to Identify Activators of Luciferase Translation or Activity in H4 […] Cells. [Related pubchem assays: 1829 (Project Summary), 1814 (Primary HTS)]; type: functional
[11] = biological target: T5, Microphthalmia-associated transcription factor (Homo sapiens, UniProt O75030); test: reducers of TRPM1 reporter luminescence, concentration series – cell-based, SK-MEL-5, cherry-picked, set 3, MITF inhibitor project, dose response (AID 493073); type: functional;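 note: SK-MEL-5 melanoma cells with luciferase driven by the MITF target TRPM1 promoter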
T5 sequence (O75030 whole entry): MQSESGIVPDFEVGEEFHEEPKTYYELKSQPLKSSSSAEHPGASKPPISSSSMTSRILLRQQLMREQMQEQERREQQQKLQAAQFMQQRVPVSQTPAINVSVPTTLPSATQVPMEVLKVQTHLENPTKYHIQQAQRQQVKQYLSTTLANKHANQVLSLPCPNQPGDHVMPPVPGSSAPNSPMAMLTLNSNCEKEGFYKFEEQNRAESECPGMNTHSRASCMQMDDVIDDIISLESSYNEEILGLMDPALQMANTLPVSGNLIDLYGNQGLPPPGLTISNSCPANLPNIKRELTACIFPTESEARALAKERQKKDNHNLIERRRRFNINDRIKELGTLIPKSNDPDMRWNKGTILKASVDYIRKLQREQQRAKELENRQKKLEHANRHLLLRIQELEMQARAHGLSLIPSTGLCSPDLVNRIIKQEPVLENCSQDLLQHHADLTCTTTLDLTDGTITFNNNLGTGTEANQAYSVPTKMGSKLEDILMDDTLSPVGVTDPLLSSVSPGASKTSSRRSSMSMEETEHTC

[12] = viability of uninfected HEp-2 cells – cell-based, HTS, cytotoxicity control for RSV inhibitor project, dose response (AID 2410); type: functional; settings: human respiratory syncytial virus
Streptococcus = test: GAS UMAA2166 growth inhibition – luminescence, BacTiterGlo, counter-screen for streptokinase expression inhibitor project, dose response (AID 1915); type: functional, organism-based;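 note: potency for reduction of bacterial viability or growth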
[13] = test system: Streptococcus sp. 'group A'; test: Streptococcus pyogenes SK(-)GAS viability under kanamycin – luminescence, BacTiterGlo, confirmation, counter-screen for streptokinase expression inhibitor project, dose response (AID 1900); type: functional, organism-based
Streptokinase A = biological target: T6, Streptokinase A (Streptococcus pyogenes serotype M1, UniProt P10520); test: viability-normalized secreted streptokinase activity reduction – plasminogen activation absorbance, OD405, dose response (AID 1914); type: functional, Streptococcus pyogenes M1 GAS;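 note: secreted streptokinase activity via plasminogen activation per viability signal from cell pellet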
T6 sequence (P10520 whole entry): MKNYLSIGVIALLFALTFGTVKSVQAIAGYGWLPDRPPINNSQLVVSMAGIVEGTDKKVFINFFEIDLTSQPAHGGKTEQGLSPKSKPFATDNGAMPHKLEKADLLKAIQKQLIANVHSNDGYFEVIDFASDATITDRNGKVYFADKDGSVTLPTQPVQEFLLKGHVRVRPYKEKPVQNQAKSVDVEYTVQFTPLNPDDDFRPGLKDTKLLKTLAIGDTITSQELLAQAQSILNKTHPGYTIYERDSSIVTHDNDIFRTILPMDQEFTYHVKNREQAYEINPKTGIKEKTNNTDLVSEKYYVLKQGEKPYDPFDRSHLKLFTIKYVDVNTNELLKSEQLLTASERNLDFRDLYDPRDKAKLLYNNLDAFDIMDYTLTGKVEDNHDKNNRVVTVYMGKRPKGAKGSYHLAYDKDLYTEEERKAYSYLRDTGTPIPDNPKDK

[14] = biological target: T7, DNA repair protein RAD52 homolog (Homo sapiens, UniProt P43351); type: functional, biochemical
T7 sequence (P43351 whole entry): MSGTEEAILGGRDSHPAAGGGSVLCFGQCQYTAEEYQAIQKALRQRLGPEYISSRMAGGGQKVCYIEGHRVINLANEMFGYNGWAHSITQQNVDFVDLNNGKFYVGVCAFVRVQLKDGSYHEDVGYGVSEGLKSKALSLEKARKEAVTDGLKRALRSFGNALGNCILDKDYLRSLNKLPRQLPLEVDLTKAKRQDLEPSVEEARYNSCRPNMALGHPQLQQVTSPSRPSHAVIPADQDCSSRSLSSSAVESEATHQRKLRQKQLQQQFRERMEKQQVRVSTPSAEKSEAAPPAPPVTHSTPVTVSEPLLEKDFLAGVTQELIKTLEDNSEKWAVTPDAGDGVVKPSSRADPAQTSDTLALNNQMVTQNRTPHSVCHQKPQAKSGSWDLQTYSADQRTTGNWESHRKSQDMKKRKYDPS

Cn1c(=O)c2cc3c(nc2n(C)c1=O)CC(c1ccccc1)CC3=O (stereo not drawn)
IC50 (Fatty acid synthase [1]): 14.5 µM (active)
IC50 [2]: > 47.1 µM (inactive)
EC50 [3]: > 53 µM (inactive)
IC50 (Fatty acid synthase [4]): 10.5 µM (active)

Cc1cccc(OCC(=O)Nc2ccccc2N2CCN(C(=O)C(C)C)CC2)c1C
EC50 [5]: 2.13 µM (active)

O=C(CSc1nc2ccccc2[nH]1)Nc1ccc(F)c(F)c1
EC50 [6]: > 195 µM (not active)
EC50 [5]: 6.59 µM (active)

N=c1n(CCO)c2ccccc2n1Cc1ccc(Cl)cc1
EC50 [7]: 3.35 µM (active)

Nc1cc2c(cc1[N+](=O)[O-])OCO2
IC50 [8]: 5.21 µM (active)

S=C(NCc1ccco1)N1CCN(Cc2ccc(Cl)cc2Cl)CC1
EC50 [5]: 4.2 µM (active)

CCC(C)(C)n1nnnc1C(c1ccc(O)c(OC)c1)N1CCc2ccccc2C1 (stereo not drawn)
IC50 [8]: 6.3 µM (active)

N#C/C(=C(/O)c1ccc(-c2cccc([N+](=O)[O-])c2)o1)c1nc2ccccc2s1
EC50 [9]: > 120 µM (not active)
IC50 [8]: 5.38 µM (active)
EC50 (H4): > 120 µM (not active)
EC50 [10]: 9.39 µM (active)

O=C(CSCc1cnn(-c2ccccc2)c1-n1cccc1)NCc1ccc2c(c1)OCO2
EC50 [5]: 2.98 µM (active)

COc1cc(C(=O)N(CCc2ccccc2)C2=CC3CCC(C2)N3C)cc(OC)c1OC (stereo not drawn)
EC50 [7]: 0.335 µM (active)

CCn1nccc1C(=O)Nc1cc(Cl)cc(Cl)c1
EC50 [5]: 7.54 µM (active)

Cc1[nH]c2ccc(C(=O)OC(C)C(=O)N(C)c3ccccc3)cc2c1C (stereo not drawn)
EC50 [7]: 0.749 µM (active)

CC(C)n1c(O)c(C2c3cc(Cl)ccc3Oc3[nH]c(=O)n(C(C)C)c(=O)c32)c(=O)[nH]c1=O (stereo not drawn)
AC50 [11]: 5.39 µM (active)

COc1ccc(N2CCN(C(=O)CCc3nc(-c4ccc(C)cc4)no3)CC2)cc1
EC50 [5]: 2.1 µM (active)

Cc1cc(Nc2ccc(C)c(C)c2)c2ccccc2n1
EC50 [7]: 2.11 µM (active)
CC50 [12]: 26.1 µM (active)

CCCCCCCCCCCCOC(=O)C[N+](C)(C)C
EC50 (Streptococcus): 10.6 µM (active)
EC50 [13]: 3.32 µM (active)
EC50 [7]: 2.99 µM (active)
EC50 (Streptokinase A): 20.7 µM (active)
AC50 [14]: 26.4 µM (active)
